Measured values: paper PMC8453635, “Piperidine Azasugars Bearing Lipophilic Chains: Stereoselective Synthesis and Biological Activity as Inhibitors of Glucocerebrosidase (GCase)” (The Journal of Organic Chemistry, 2021)

Assays:
α-galactosidase = molecular target: T1, α-galactosidase (Homo sapiens, UniProt P06280); experiment: Human lysosomal glycosidase selectivity screening (leukocyte homogenate); type: biochemical; settings: 1 mM, read-out: percentage of inhibition, α-Gal
T1 construct: from leukocytes isolated from healthy donors (controls); from tissue; host or cells: leukocytes from healthy donors, sonicated homogenate
T1 sequence (P06280 32-429): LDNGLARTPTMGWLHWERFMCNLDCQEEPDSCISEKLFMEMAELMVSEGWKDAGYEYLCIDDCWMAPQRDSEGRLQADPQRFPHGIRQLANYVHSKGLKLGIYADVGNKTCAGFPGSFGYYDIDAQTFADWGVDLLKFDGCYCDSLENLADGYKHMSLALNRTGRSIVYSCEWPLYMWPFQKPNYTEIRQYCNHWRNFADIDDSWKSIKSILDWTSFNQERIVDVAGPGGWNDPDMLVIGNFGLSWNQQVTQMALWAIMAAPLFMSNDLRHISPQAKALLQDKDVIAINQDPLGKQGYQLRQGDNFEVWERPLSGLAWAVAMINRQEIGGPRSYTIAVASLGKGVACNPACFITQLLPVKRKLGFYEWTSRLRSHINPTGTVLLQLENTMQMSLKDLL
Experimental: (§1) In order to avoid undesired inhibitory side effects of a potential new drug, it has to be selective for a given target. The selectivity of the newly synthesized compounds 14, 15, and 33·HCl toward GCase was then investigated, evaluating their inhibition at 1 mM concentration toward six other lysosomal glycosidases (namely, α-and β-mannosidases, α- and β-galactosidases, α-fucosidase, and α-glucosidase) in cell homogenates (leucocytes or lymphocytes) isolated from healthy donors. […] Indeed, only moderate inhibitory activity (ca. 50%) was found toward human β-galactosidase for both piperidines 14 and 15, while negligible inhibitory activity was detected in all other cases.
The effect of 1 mM concentration of 14, 15, and 33·HCl was assayed toward six lysosomal glycosidases other than GCase, namely, α-mannosidase, β-mannosidase, α-galactosidase, β-galactosidase, α-fucosidase from leukocytes isolated from healthy donors (controls) and α-glucosidase from lymphocytes isolated from healthy donors’ flesh blood (controls). […]
μL, Sigma –Aldrich) in acetate buffer (0.1 M, pH 4.5) containing sodium azide (0.02%) were incubated at 37 °C for 1 h. Th e reaction was stopped by addition of sodium carbonate (200 μL; 0.5M, pH 10.7) containing Triton X -100 (0.0025 %), and the fluorescence 4 -methylumbelliferone released by α-galactosidase activity was measured in SpectraMax M2 microplate reader ( λex=365 nm, λem=435 nm; Molecular Devices). […]
α-Fucosidase activity was measured in a flat -bottomed 96 -well plate. […]
α-Glucosidase activity was measured in a flat –bottomed 96 well plate. […] The reaction was stopped by the addition of a solution of sodium carbonate (200 µL; 0.5M, pH 10.7) containing Triton X -100 (0.0025 %), and the fluorescence of 4 -methylumbelliferone released by α-glucosidase activity was measured in […]
Figure S 48. […] The corresponding calculated percentage of inhibition is indicated above each bar.

β-mannosidase = molecular target: T2, β-mannosidase (Homo sapiens, UniProt O00462); experiment: as above; type: biochemical; settings: 1 mM, read-out: percentage of inhibition, β-Man
T2 construct: from leukocytes isolated from healthy donors (controls); from tissue; host or cells: leukocytes from healthy donors, sonicated homogenate
T2 sequence (O00462 18-879): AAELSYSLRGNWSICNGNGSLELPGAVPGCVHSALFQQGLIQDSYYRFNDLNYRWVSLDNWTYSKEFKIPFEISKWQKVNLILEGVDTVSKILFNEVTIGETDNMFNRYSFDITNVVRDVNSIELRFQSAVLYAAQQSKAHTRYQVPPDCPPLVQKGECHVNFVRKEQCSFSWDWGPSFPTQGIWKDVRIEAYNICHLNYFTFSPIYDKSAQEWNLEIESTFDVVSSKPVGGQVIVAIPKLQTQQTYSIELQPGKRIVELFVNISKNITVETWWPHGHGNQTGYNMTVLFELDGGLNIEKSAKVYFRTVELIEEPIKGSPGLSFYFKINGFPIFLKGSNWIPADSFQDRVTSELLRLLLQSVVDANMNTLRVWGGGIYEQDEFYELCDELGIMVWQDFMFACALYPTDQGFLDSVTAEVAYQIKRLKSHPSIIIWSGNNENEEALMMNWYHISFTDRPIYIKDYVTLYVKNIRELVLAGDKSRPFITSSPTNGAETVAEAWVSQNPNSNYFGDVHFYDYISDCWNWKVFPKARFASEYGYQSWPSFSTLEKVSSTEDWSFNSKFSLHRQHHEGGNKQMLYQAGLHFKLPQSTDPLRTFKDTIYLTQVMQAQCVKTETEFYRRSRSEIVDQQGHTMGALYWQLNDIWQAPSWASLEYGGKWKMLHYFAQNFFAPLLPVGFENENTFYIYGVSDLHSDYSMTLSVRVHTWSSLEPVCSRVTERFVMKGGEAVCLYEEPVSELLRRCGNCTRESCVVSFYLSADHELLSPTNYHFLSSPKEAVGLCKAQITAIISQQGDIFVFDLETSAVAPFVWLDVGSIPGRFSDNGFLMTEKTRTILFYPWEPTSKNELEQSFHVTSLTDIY
Experimental: as §1
(§2) The effect of 1 mM concentration of 14, 15, and 33·HCl was assayed toward six lysosomal glycosidases other than GCase, namely, α-mannosidase, β-mannosidase, α-galactosidase, β-galactosidase, α-fucosidase from leukocytes isolated from healthy donors (controls) and α-glucosidase from lymphocytes isolated from healthy donors’ flesh blood (controls). Isolated leukocytes or lymphocytes were disrupted by sonication, and a micro BCA protein assay kit (Sigma-Aldrich) was used to determine the total protein amount for the enzymatic assay, according to the manufacturer’s instructions (for more details, see the Supporting Information section).
Selectivity of compounds 14, 15 and 33.HCl towards lysosomal enzymes.
as §2, with “15” for “15,”, “33.HCl” for “33·HCl”, “towards” for “toward”, “namely:” for “namely,”, “(Sigma–Aldrich)” for “(Sigma-Aldrich)”, “manufacturer instructions. […]” for “manufacturer’s instructions (for more details, see the Supporting Information section).”
Molecular Devices). Inhibition is given with respect to the control (without azasugar). Data are mean SD (n=3). […]
Inhibition is given with respect to the control (without azasugar). Data are mean SD (n=3). […]
(1 picture or pasted object on this page, not shown here) […]
α-Fucosidase activity was measured in a flat -bottomed 96 -well plate. Azasugar solution (3 μL), 4.29 μg/μL leukocytes homogenate 1:3 (7 μL), and substrate 4 -methylumbe lliferyl α-L-fucopyranoside (1.51 mM, 20 μL, Sigma –Aldrich) in Na phosphate/citrate buffer (0.2:0.1, M/M, pH 5.5) were incubated at 37 °C for 1 h. […]
Data are mean SD (n=3). S74 […]
α-Glucosidase activity was measured in a flat –bottomed 96 well plate. Azasugar solution (3 µL), 4.29 µg/µL lymphocytes homogenate (7µL) and 20 µL of substrate solution of 4 -methylumbelliferyl -α-D-glucopyranoside (Sigma -Aldrich) in Na a cetate buffer (0.2 M, pH 4.0) were incubated for 1 h at 37 °C. The reaction was stopped by the addition of a solution of sodium carbonate (200 µL; 0.5M, pH 10.7) containing Triton X -100 (0.0025 %), and the fluorescence of 4 -methylumbelliferone released by α-glucosidase activity was measured in […]
respect to the control (without azasugar). Data are means of 3 values. […]
Figure S 48. Activity of a panel of 6 hu man lysosomal glycosidases in the presence of compounds 14, 15 and 33.HCl (1 mM ). The corresponding calculated percentage of inhibition is indicated above each bar.

Row | Structure (SMILES) | inhibition at 1000 µM (α-galactosidase) [%] | inhibition at 1000 µM (β-mannosidase) [%]
1 | CCCCCCCC[C@H]1[C@@H](O)[C@H](O)[C@H](O)CN1CCCCCCCC [compound 14, (2S,3R,4R,5R)-1,2-Dioctylpiperidine-3,4,5-triol] | 9 | 0
2 | CCCCCCCC[C@@H]1[C@@H](O)[C@H](O)[C@H](O)CN1CCCCCCCC [compound 15, (2R,3R,4R,5R)-1,2-Dioctylpiperidine-3,4,5-triol] | 8 | 1
3 | CCCCCCCC[C@@H]1[C@@H](O)[C@H](O)[C@H](O)CN1C(CCCCCCC)CCCCCCC.Cl [compound 33·HCl, (2R,3R,4R,5R)-2-Octyl-1-(pentadecan-8-yl)-piperidine-3,4,5-triol Hydrochloride] | 1 | 2
